Results taken from ChEMBL document CHEMBL3352299, “Antiproliferative 4-(1,2,4-oxadiazol-5-yl)piperidine-1-carboxamides, a new tubulin inhibitor chemotype” (Bioorg Med Chem Lett, 2014).
pIC50: −log10 of the molar value.

Tests used:
[1] = system: DU-145; assay: Antiproliferative activity against human DU145 cells after 3 days by fluorescence assay; assay type: functional; conditions: DU-145, 72 h
[2] = biological target: Tubulin; assay: Displacement of [3H]-colchicine from tubulin (unknown origin) after 10 mins by turbidimetrically; assay type: protein-complex assay, Homo sapiens
[3] = system: DU-145; assay: Antiproliferative activity against human DU145 cells at 50 uM after 3 days by fluorescence assay; assay type: functional; conditions: DU-145, 72 h, read-out: GI
[4] = system: K562; assay: Induction of mitotic arrest in human K562 cells assessed as growth inhibition by light microscopy; assay type: functional, cell-based
[5] = system: K562; assay: Induction of mitotic arrest in human K562 cells assessed as mitotic indices at 5 uM by light microscopy; assay type: functional

Row | Compound | GI50 [1] [µM] | inhibition of growth at 50 µM [3] [%] | further results
1 | COc1cccc(NC(=O)N2CCC(c3nc(-c4ccc(Cl)cc4)no3)CC2)c1 | 9.5 |  | pIC50 [2]: 5.28
2 | O=C(NCc1ccccc1)N1CCC(c2nc(CCN3CCOCC3)no2)CC1 | 11.2 |  | 
3 | O=C(NCc1ccsc1)N1CCCC(c2nc(Cc3ccccc3)no2)C1 (centres undefined) |  | < 20 | 
4 | O=C(NCc1ccccc1)N1CCC(c2nc(Cc3ccccc3)no2)CC1 | 0.76 |  | 
5 | Cc1ccc(-c2noc(C3CCN(C(=O)NCc4ccccc4)CC3)n2)cc1 | 1.6 |  | pIC50 [2]: 5.96; pIC50 [4]: 6.26; Activity [5]: 83%
6 | O=C(NCc1ccoc1)N1CCC(c2nc(-c3ccc(F)cc3)no2)CC1 | 1.1 |  | 
7 | Cc1cc(CNC(=O)N2CCC(c3nc(Cc4ccccc4)no3)CC2)nn1C | 0.95 |  | 
8 | O=C(NCc1ccccc1)N1CCC(c2nc(-c3ccccc3Cl)no2)CC1 | 9.3 |  | pIC50 [2]: 5.59
9 | O=C(N1CCOCC1)N1CCC(c2nc(-c3ccc(F)cc3)no2)CC1 |  | < 20 | 
10 | CN(Cc1ccco1)C(=O)N1CCC(c2nc(-c3ccc(F)cc3)no2)CC1 | 17 |  | 
11 | O=C(N1CCC(c2nc(-c3ccc(F)cc3)no2)CC1)N1CCc2ccccc21 |  | < 20 | 
12 | Cc1cc(CNC(=O)N2CCC(c3nc(COc4ccccc4)no3)CC2)nn1C | 2.8 |  | 
13 | CCCCNC(=O)N1CCC(c2nc(-c3ccc(F)cc3)no2)CC1 |  | < 20 | 
14 | COC(=O)CNC(=O)N1CCC(c2nc(-c3ccc(F)cc3)no2)CC1 |  | < 20 | 
15 | O=C(NCc1ccccc1)N1CCC(c2nc(COc3ccccc3)no2)CC1 | 0.52 |  | 
16 | O=C(NCc1ccco1)N1CCC(c2nc(-c3ccccc3)no2)CC1 | 6 |  | 
17 | Cc1ccc(-c2noc(C3CCN(C(=O)NCc4ccco4)CC3)n2)cc1 | 2.2 |  | pIC50 [2]: 5.64
18 | Cc1ccccc1-c1noc(C2CCN(C(=O)NCc3ccccc3)CC2)n1 | 12.3 |  | 
19 | Cc1cc(CNC(=O)N2CCC(c3nc(-c4ccc(F)cc4)no3)CC2)nn1C | 0.94 |  | 
20 | O=C(NCc1ccsc1)N1CCC(c2nc(Cc3ccccc3)no2)CC1 | 0.12 |  | 
21 | COCCNC(=O)N1CCC(c2nc(-c3ccc(F)cc3)no2)CC1 |  | < 20 | 
22 | O=C(NCc1cccs1)N1CCC(c2nc(-c3ccc(F)cc3)no2)CC1 | 1.7 |  | 
23 | O=C(NCCc1ccccc1)N1CCC(c2nc(-c3ccc(F)cc3)no2)CC1 | 13.6 |  | 

Row | Compound | GI50 [1] [µM] | inhibition of growth at 50 µM [3] [%] | further results
24 | CC(C)Cc1noc(C2CCN(C(=O)NCc3ccccc3)CC2)n1 |  | < 20 | 
25 | O=C(NCc1ccco1)N1CCC(c2nc(-c3ccc(Cl)cc3)no2)CC1 | 2.7 |  | pIC50 [2]: 5.70
26 | C#CCNC(=O)N1CCC(c2nc(-c3ccc(F)cc3)no2)CC1 |  | < 20 | 
27 | O=C(NCc1ccco1)N1CCC(c2nc(-c3ccc(F)cc3)no2)CC1 | 3.3 |  | 
28 | O=C(NCc1ccsc1)N1CCCCC1c1nc(Cc2ccccc2)no1 (centres undefined) |  | < 20 | 
29 | O=C(NCc1ccc2c(c1)OCO2)N1CCC(c2nc(-c3ccc(F)cc3)no2)CC1 | 1.3 |  | 
30 | O=C(NCc1ccsc1)N1CCC(c2nc(Cc3ccccc3)no2)C1 (centres undefined) | 6.5 |  | 
31 | O=C(N1CCC(c2nc(-c3ccc(F)cc3)no2)CC1)N1CCCc2ccccc21 |  | < 20 | 
32 | O=C(NCc1ccccc1)N1CCC(c2nc(CCN3CCc4ccccc4C3)no2)CC1 | 8.6 |  | 
33 | O=C(N1CCCCC1)N1CCC(c2nc(-c3ccc(F)cc3)no2)CC1 |  | < 20 | 
34 | O=C(N1CCC(c2nc(-c3ccc(F)cc3)no2)CC1)N1CCc2ccccc2C1 | 21 |  | 
35 | COc1cc(OC)cc(-c2noc(C3CCN(C(=O)NCc4ccccc4)CC3)n2)c1 | 4.4 |  | 
36 | O=C(NCc1ccsc1)N1CCCC1c1nc(Cc2ccccc2)no1 (centres undefined) |  | < 20 | 
37 | Cc1noc(C2CCN(C(=O)NCc3ccccc3)CC2)n1 |  | < 20 | 
38 | O=C(NCc1ccccc1)N1CCC(c2nc(-c3ccc(F)cc3Cl)no2)CC1 | 2.9 |  | 
39 | O=C(NCCc1c[nH]c2ccccc12)N1CCC(c2nc(-c3ccc(F)cc3)no2)CC1 | 9.8 |  | 
40 | O=C(NCC1CC1)N1CCC(c2nc(-c3ccc(F)cc3)no2)CC1 |  | < 20 | 
41 | O=C(NCc1ccccc1)N1CCC(c2nc(-c3ccccc3)no2)CC1 | 1.9 |  | pIC50 [2]: 5.74; pIC50 [4]: 5.82; Activity [5]: 75%
42 | O=C(NCc1ccsc1)N1CCC(c2nc(COc3ccccc3)no2)CC1 | 1.7 |  | 
43 | O=C(NCc1ccccc1)N1CCC(c2nc(-c3ccc(F)cc3)no2)CC1 | 2.8 |  | pIC50 [2]: 5.80; pIC50 [4]: 5.92; Activity [5]: 72%
44 | O=C(NCc1ccsc1)N1CCC(c2nc(-c3ccc(F)cc3)no2)CC1 | 0.65 |  | 
45 | Cc1cccc(-c2noc(C3CCN(C(=O)NCc4ccccc4)CC3)n2)c1 | 1.2 |  | 
46 | CC(C)(C)NC(=O)N1CCC(c2nc(-c3ccc(F)cc3)no2)CC1 |  | < 20 | 
